For three compounds, % of control and dTM results are on record in ChEMBL document CHEMBL5465560, “Selectivity Literature for EUbOPEN Chemogenomic Library” (2024).

For experiment [1], the target named is T1, Dual specificity mitogen-activated protein kinase kinase 5 (Homo sapiens) (UniProt Q13163).
T1 sequence (whole entry): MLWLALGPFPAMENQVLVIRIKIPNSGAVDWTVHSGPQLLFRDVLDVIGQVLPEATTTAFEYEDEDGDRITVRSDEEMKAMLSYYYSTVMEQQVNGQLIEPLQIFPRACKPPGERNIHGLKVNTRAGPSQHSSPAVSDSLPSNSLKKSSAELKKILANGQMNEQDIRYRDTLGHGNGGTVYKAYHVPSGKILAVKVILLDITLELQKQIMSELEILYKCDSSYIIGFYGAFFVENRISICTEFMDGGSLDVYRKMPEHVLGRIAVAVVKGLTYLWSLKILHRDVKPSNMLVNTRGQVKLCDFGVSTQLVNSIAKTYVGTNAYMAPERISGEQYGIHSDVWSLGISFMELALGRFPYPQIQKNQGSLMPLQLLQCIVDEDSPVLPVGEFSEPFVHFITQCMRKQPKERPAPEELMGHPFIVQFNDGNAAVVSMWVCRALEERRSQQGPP
The experiment in a line: Selectivity interaction (KinomeScan (DiscoverX)) EUB0000695a MAP2K5. Conditions: at 100 nM.

Experiment [2] addresses T2, Bromodomain-containing protein 1 (Homo sapiens) (UniProt O95696).
T2 sequence (whole entry): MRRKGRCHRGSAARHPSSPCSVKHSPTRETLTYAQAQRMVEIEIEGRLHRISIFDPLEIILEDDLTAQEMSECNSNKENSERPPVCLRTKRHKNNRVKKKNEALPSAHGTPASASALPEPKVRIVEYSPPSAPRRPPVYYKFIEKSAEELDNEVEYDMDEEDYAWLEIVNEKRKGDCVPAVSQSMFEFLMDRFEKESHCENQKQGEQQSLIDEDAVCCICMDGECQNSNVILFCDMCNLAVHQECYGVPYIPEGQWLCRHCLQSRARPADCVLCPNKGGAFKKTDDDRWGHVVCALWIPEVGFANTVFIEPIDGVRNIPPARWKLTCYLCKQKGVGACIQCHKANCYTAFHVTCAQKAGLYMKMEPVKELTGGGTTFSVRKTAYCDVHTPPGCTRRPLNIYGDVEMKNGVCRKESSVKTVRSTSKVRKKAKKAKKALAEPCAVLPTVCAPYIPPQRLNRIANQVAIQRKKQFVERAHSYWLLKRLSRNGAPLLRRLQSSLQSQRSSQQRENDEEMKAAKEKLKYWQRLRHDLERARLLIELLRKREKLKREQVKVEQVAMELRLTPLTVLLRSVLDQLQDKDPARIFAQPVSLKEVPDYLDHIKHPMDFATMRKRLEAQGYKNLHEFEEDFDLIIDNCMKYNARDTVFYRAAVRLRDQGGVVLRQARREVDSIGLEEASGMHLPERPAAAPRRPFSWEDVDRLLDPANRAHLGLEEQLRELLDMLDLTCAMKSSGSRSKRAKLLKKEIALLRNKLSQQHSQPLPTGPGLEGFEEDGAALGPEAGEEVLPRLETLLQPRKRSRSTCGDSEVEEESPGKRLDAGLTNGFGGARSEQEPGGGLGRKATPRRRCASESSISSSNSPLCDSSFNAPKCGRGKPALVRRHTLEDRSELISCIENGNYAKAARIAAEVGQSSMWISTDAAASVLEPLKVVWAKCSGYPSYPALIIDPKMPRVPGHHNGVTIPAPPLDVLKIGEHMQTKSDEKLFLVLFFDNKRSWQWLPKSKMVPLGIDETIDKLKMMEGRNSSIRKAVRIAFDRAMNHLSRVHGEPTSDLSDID
Put plainly: Selectivity interaction (Human bromodomain panel (DSF assay)) EUB0000233b BRD1.

The target of experiment [3] is T3, Phosphatidylinositol 3-kinase C2 domain-containing subunit gamma (Homo sapiens) (UniProt O75747).
T3 sequence (whole entry): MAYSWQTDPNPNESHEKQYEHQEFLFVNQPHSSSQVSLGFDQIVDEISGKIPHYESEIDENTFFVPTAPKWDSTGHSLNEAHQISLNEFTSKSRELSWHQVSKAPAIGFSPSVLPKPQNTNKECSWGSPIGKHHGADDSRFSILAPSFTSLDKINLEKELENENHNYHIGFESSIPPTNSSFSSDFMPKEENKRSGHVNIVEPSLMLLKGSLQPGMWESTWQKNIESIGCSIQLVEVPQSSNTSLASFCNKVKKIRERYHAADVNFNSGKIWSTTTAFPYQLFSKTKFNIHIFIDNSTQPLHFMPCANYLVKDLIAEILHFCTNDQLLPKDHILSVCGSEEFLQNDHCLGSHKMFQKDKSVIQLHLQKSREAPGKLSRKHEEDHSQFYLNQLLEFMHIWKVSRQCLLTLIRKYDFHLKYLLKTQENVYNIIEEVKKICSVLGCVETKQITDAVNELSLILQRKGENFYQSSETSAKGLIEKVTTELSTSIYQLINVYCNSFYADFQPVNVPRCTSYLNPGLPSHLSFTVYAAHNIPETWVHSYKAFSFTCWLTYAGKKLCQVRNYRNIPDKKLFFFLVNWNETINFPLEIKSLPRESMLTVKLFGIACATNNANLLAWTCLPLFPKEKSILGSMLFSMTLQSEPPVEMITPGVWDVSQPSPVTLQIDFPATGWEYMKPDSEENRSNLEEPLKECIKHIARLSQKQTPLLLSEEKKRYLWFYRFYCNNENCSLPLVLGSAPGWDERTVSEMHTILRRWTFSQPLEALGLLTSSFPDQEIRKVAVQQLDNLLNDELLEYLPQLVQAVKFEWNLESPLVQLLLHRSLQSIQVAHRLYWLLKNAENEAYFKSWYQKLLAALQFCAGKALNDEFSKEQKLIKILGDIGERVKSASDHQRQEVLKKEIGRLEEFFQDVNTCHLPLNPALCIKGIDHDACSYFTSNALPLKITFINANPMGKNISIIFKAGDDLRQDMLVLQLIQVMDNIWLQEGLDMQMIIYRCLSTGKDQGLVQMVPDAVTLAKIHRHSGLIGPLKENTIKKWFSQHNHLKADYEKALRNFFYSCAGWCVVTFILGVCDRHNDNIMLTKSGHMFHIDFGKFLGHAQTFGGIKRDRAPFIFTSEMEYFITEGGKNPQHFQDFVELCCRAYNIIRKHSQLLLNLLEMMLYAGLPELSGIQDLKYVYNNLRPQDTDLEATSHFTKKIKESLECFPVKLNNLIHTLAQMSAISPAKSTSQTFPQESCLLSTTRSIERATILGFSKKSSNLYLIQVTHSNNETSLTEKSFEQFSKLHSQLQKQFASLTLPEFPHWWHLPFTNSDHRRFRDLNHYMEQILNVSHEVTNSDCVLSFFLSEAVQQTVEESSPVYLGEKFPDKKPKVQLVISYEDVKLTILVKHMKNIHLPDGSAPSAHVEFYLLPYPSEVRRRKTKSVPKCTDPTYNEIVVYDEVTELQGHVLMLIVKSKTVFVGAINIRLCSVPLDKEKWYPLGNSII
Put plainly: Selectivity interaction (KinomeScan (DiscoverX)) EUB0000045b PIK3C2G.

For `Cc1cc(F)c(C(=O)Nc2cccc(-c3nncn3C(C)C)n2)cc1-n1cnc(C2CC2)c1`, the % of control in experiment [1] was determined as 94%.

On to `CN(C)CCCOc1ccc(-c2cc(NCCCn3cccn3)nc(S(C)(=O)=O)n2)cc1`, for which, in experiment [2], the dTM is below 2 K. For `C=CC(=O)Nc1cc(-n2c(=O)ccc3cnc4ccc(-c5ccc(NS(C)(=O)=O)cc5)cc4c32)ccc1C`, the % of control in experiment [3] (at 1 µM) stood at 100%; in experiment [3] (at 10 µM), 8.7%.
